Measurements from patent publication US11505543B2, “4-oxo-3,4-dihydroquinazoline compounds as inhibitors of human immunodeficiency virus replication” (VIIV HEALTHCARE UK (NO.5) LIMITED, priority 2018, dated 2022).

What was measured:
[1] = Compound cytotoxicity, XTT-based colorimetric assay; format: cell-based; conditions: human, uninfected MT2 cells, day 4, XTT
How it was run: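 Run under the antiviral-assay protocol but without virus. Viability was read on day 4 and CC50 values were derived from the readout.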

[2] = test system: recombinant NL4-3 virus (nef section replaced with Renilla luciferase gene) in MT-2 cells; test: HIV cell culture assay (antiviral activity, luciferase readout); format: cell-based; conditions: Renilla, NL43, MT-2 cells infected for 4-5 days with recombinant NL4-3 Renilla luciferase virus, serial dilutions of compound
How it was run: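 Test compound in serial dilution was present while MT-2 cells were infected for 4–5 days with recombinant NL4-3 virus made in 293T cells. Antiviral activity was quantified as Renilla luciferase activity, read with a live-cell substrate. EC50 came from the median-effect equation.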

Q: For COc1ccc(-c2ccc3c(=O)n(-c4ccc(Cl)c5c(NS(C)(=O)=O)nn(C)c45)c([C@H](Cc4cc(F)cc(F)c4)NC(=O)Cn4nc(C(F)F)c5c4C(F)(F)[C@@H]4C[C@H]54)nc3c2)c(CO)c1 [Example 179, N-((S)-1-(3-(4-chloro-1-methyl-3-(methylsulfonamido)-1H-indazol-7-yl)-7-(2-(hydroxymethyl)-4-methoxyphenyl)-4-oxo-3,4-dihydroquinazolin-2-yl)-2-(3,5-difluorophenyl)ethyl)-2-((3bS,4aR)-3-(difluoromethyl)-5,5-difluoro-3b,4,4a,5-tetrahydro-1H-cyclopropa[3,4]cyclopenta[1,2-c]pyrazol-1-yl)acetamide], which CC50 at 4 day [1] is on record?
A: > 500 nM

Q: What about the EC50 [2] of the same compound?
A: 0.235 nM

Q: For Cn1nc(NS(C)(=O)=O)c2c(Cl)ccc(-n3c([C@H](Cc4cc(F)cc(F)c4)NC(=O)Cn4nc(C(F)F)c5c4C(F)(F)[C@@H]4C[C@H]54)nc4cc(-c5c(F)cc(F)cc5F)ccc4c3=O)c21 [Example 172, N-((S)-1-(3-(4-chloro-1-methyl-3-(methylsulfonamido)-1H-indazol-7-yl)-4-oxo-7-(2,4,6-trifluorophenyl)-3,4-dihydroquinazolin-2-yl)-2-(3,5-difluorophenyl)ethyl)-2-((3bS,4aR)-3-(difluoromethyl)-5,5-difluoro-3b,4,4a,5-tetrahydro-1H-cyclopropa[3,4]cyclopenta[1,2-c]pyrazol-1-yl)acetamide], which CC50 at 4 day [1] is on record?
A: > 500 nM

Q: And the EC50 [2]?
A: 0.25 nM

Q: For Cn1nc(NS(C)(=O)=O)c2c(Cl)ccc(-n3c([C@H](Cc4cc(F)cc(F)c4)NC(=O)Cn4nc(C(F)F)c5c4C(F)(F)[C@@H]4C[C@H]54)nc4cc(-c5ccc(F)c(C#N)c5)ccc4c3=O)c21 (atropisomer, axis not shown; (aR)) [Example 97, N-((S)-1-(3-(4-chloro-1-methyl-3-(methylsulfonamido)-1H-indazol-7-yl)-7-(3-cyano-4-fluorophenyl)-4-oxo-3,4-dihydroquinazolin-2-yl)-2-(3,5-difluorophenyl)ethyl)-2-((3bS,4aR)-3-(difluoromethyl)-5,5-difluoro-3b,4,4a,5-tetrahydro-1H-cyclopropa[3,4]cyclopenta[1,2-c]pyrazol-1-yl)acetamide], which CC50 at 4 day [1] is on record?
A: > 1000 nM

Q: And the EC50 [2]?
A: 0.4 nM

Q: What does the source list for Cn1nc(NS(C)(=O)=O)c2c(Cl)ccc(-n3c([C@H](Cc4cc(F)cc(F)c4)NC(=O)Cn4nc(C(F)F)c5c4C(F)(F)[C@@H]4C[C@H]54)nc4cc(-c5c(F)cccc5F)ccc4c3=O)c21 [Example 185, N-((S)-1-(3-(4-chloro-1-methyl-3-(methylsulfonamido)-1H-indazol-7-yl)-7-(2,6-difluorophenyl)-4-oxo-3,4-dihydroquinazolin-2-yl)-2-(3,5-difluorophenyl)ethyl)-2-((3bS,4aR)-3-(difluoromethyl)-5,5-difluoro-3b,4,4a,5-tetrahydro-1H-cyclopropa[3,4]cyclopenta[1,2-c]pyrazol-1-yl)acetamide]?
A: CC50 at 4 day [1]: > 1000 nM; EC50 [2]: 0.62 nM

Q: With Cn1nc(NS(C)(=O)=O)c2c(Cl)ccc(-n3c([C@H](Cc4cc(F)cc(F)c4)NC(=O)Cn4nc(C(F)F)c5c4C(F)(F)[C@@H]4C[C@H]54)nc4cc(-c5c(Cl)cccc5Cl)ccc4c3=O)c21 (atropisomer, axis not shown; (aR)) [Example 104, N-((S)-1-(3-(4-chloro-1-methyl-3-(methylsulfonamido)-1H-indazol-7-yl)-7-(2,6-dichlorophenyl)-4-oxo-3,4-dihydroquinazolin-2-yl)-2-(3,5-difluorophenyl)ethyl)-2-((3bS,4aR)-3-(difluoromethyl)-5,5-difluoro-3b,4,4a,5-tetrahydro-1H-cyclopropa[3,4]cyclopenta[1,2-c]pyrazol-1-yl)acetamide] as the compound, how does the CC50 at 4 day [1] read?
A: > 1000 nM

Q: And the EC50 [2]?
A: 0.68 nM

Q: Which results are given for O=C(Cn1ccc(C2CC2)n1)N[C@@H](Cc1cc(F)cc(F)c1)c1nc2cc(-c3cc(F)ccc3F)ccc2c(=O)n1-c1ccc(S(=O)(=O)N2CCOCC2)cc1 [Example 19, (S)-2-(3-cyclopropyl-1H-pyrazol-1-yl)-N-(2-(3,5-difluorophenyl)-1-(7-(2,5-difluorophenyl)-3-(4-(morpholinosulfonyl)phenyl)-4-oxo-3,4-dihydroquinazolin-2-yl)ethyl)acetamide]?
A: CC50 at 4 day [1]: > 1000 nM; EC50 [2]: 8.9 nM

Q: Which CC50 at 4 day [1] does the source give for Cn1nc(NS(C)(=O)=O)c2c(Cl)ccc(-n3c([C@H](Cc4cc(F)cc(F)c4)NC(=O)Cn4nc(C(F)F)c5c4C(F)(F)[C@@H]4C[C@H]54)nc4cc(-c5ccccc5S(C)(=O)=O)ccc4c3=O)c21 (atropisomer, axis not shown; (aR)) [Example 109, N-((S)-1-(3-(4-chloro-1-methyl-3-(methylsulfonamido)-1H-indazol-7-yl)-7-(2-(methylsulfonyl)phenyl)-4-oxo-3,4-dihydroquinazolin-2-yl)-2-(3,5-difluorophenyl)ethyl)-2-((3bS,4aR)-3-(difluoromethyl)-5,5-difluoro-3b,4,4a,5-tetrahydro-1H-cyclopropa[3,4]cyclopenta[1,2-c]pyrazol-1-yl)acetamide] here?
A: > 1000 nM

Q: What about the EC50 [2] of the same compound?
A: 0.11 nM

Q: What does the source list for O=C(Cn1ccc(C2CC2)n1)N[C@@H](Cc1cc(F)cc(F)c1)c1nc2cc(-c3ccccc3F)ccc2c(=O)n1-c1ccc(Cl)c2c(NS(=O)(=O)C3CC3)nn(CC(F)F)c12 (atropisomer, axis not shown) [Example 134, (S)-N-(1-(3-(4-chloro-3-(cyclopropanesulfonamido)-1-(2,2-difluoroethyl)-1H-indazol-7-yl)-7-(2-fluorophenyl)-4-oxo-3,4-dihydroquinazolin-2-yl)-2-(3,5-difluorophenyl)ethyl)-2-(3-cyclopropyl-1H-pyrazol-1-yl)acetamide]?
A: CC50 at 4 day [1]: > 1000 nM; EC50 [2]: 10 nM

Q: For Cc1cc(C(F)F)nn1CC(=O)N[C@@H](Cc1cc(F)cc(F)c1)c1nc2cc(-c3ccccc3F)ccc2c(=O)n1-c1ccc(Cl)c2c(NS(=O)(=O)C3CC3)nn(CC(F)F)c12 [Example 137, (S)-N-(1-(3-(4-chloro-3-(cyclopropanesulfonamido)-1-(2,2-difluoroethyl)-1H-indazol-7-yl)-7-(2-fluorophenyl)-4-oxo-3,4-dihydroquinazolin-2-yl)-2-(3,5-difluorophenyl)ethyl)-2-(3-(difluoromethyl)-5-methyl-1H-pyrazol-1-yl)acetamide], which CC50 at 4 day [1] is on record?
A: > 1000 nM

Q: What about the EC50 [2] of the same compound?
A: 8.4 nM

Q: Which CC50 at 4 day [1] does the source give for CC(C)c1ccn(CC(=O)N[C@@H](Cc2cc(F)cc(F)c2)c2nc3cc(-c4ccccc4F)ccc3c(=O)n2-c2ccc(Cl)c3c(NS(=O)(=O)C4CC4)nn(CC(F)F)c23)n1 (atropisomer, axis not shown) [Example 135, (S)-N-(1-(3-(4-chloro-3-(cyclopropanesulfonamido)-1-(2,2-difluoroethyl)-1H-indazol-7-yl)-7-(2-fluorophenyl)-4-oxo-3,4-dihydroquinazolin-2-yl)-2-(3,5-difluorophenyl)ethyl)-2-(3-isopropyl-1H-pyrazol-1-yl)acetamide] here?
A: > 1000 nM

Q: What about the EC50 [2] of the same compound?
A: 13 nM

Q: What does the source list for Cn1nc(NS(C)(=O)=O)c2c(Cl)ccc(-n3c([C@H](Cc4cc(F)cc(F)c4)NC(=O)Cn4nc(C(F)F)c5c4C(F)(F)[C@@H]4C[C@H]54)nc4cc(-c5cc(F)ccc5F)ccc4c3=O)c21 (atropisomer, axis not shown; (aR)) [Example 99, N-((S)-1-(3-(4-chloro-1-methyl-3-(methylsulfonamido)-1H-indazol-7-yl)-7-(2,5-difluorophenyl)-4-oxo-3,4-dihydroquinazolin-2-yl)-2-(3,5-difluorophenyl)ethyl)-2-((3bS,4aR)-3-(difluoromethyl)-5,5-difluoro-3b,4,4a,5-tetrahydro-1H-cyclopropa[3,4]cyclopenta[1,2-c]pyrazol-1-yl)acetamide]?
A: CC50 at 4 day [1]: > 1000 nM; EC50 [2]: 0.68 nM

Q: With Cn1nc(NS(C)(=O)=O)c2c(Cl)ccc(-n3c([C@H](Cc4cc(F)cc(F)c4)NC(=O)Cn4nc(C(F)F)c5c4C(F)(F)[C@@H]4C[C@H]54)nc4cc(-c5ccccc5F)ccc4c3=O)c21 (single isomer, unassigned) [Example 2] as the compound, how does the CC50 at 4 day [1] read?
A: > 1000 nM

Q: What about the EC50 [2] of the same compound?
A: 0.53 nM

Q: With O=C(Cn1ccc(C2CC2)n1)N[C@@H](Cc1cc(F)cc(F)c1)c1nc2cc(-c3c(Cl)cccc3Cl)ccc2c(=O)n1-c1ccc(S(=O)(=O)N2CCOCC2)cc1 [Example 114, (S)-2-(3-cyclopropyl-1H-pyrazol-1-yl)-N-(1-(7-(2,6-dichlorophenyl)-3-(4-(morpholinosulfonyl)phenyl)-4-oxo-3,4-dihydroquinazolin-2-yl)-2-(3,5-difluorophenyl)ethyl)acetamide] as the compound, how does the CC50 at 4 day [1] read?
A: > 1000 nM

Q: What about the EC50 [2] of the same compound?
A: 15 nM

Q: Which CC50 at 4 day [1] does the source give for Cn1nc(NS(C)(=O)=O)c2c(Cl)ccc(-n3c([C@H](Cc4cc(F)cc(F)c4)NC(=O)Cn4nc(C(F)F)c5c4C(F)(F)[C@@H]4C[C@H]54)nc4cc(-c5cc[nH]n5)ccc4c3=O)c21 (atropisomer, axis not shown; (aR)) [Example 78, N-((S)-1-(3-(4-chloro-1-methyl-3-(methylsulfonamido)-1H-indazol-7-yl)-4-oxo-7-(1H-pyrazol-3-yl)-3,4-dihydroquinazolin-2-yl)-2-(3,5-difluorophenyl)ethyl)-2-((3bS,4aR)-3-(difluoromethyl)-5,5-difluoro-3b,4,4a,5-tetrahydro-1H-cyclopropa[3,4]cyclopenta[1,2-c]pyrazol-1-yl)acetamide] here?
A: > 1000 nM

Q: And the EC50 [2]?
A: 0.12 nM

Q: Which results are given for Cn1nc(NS(C)(=O)=O)c2c(Cl)ccc(-n3c([C@H](Cc4cc(F)cc(F)c4)NC(=O)Cn4nc(C(F)F)c5c4C(F)(F)[C@@H]4C[C@H]54)nc4cc(-c5ccc(Cl)cc5F)ccc4c3=O)c21 [Example 184, N-((S)-1-(3-(4-chloro-1-methyl-3-(methylsulfonamido)-1H-indazol-7-yl)-7-(4-chloro-2-fluorophenyl)-4-oxo-3,4-dihydroquinazolin-2-yl)-2-(3,5-difluorophenyl)ethyl)-2-((3bS,4aR)-3-(difluoromethyl)-5,5-difluoro-3b,4,4a,5-tetrahydro-1H-cyclopropa[3,4]cyclopenta[1,2-c]pyrazol-1-yl)acetamide]?
A: CC50 at 4 day [1]: > 500 nM; EC50 [2]: 1.8 nM
